The source of these data is patent US7153870B2, “Nicotinamide derivatives useful as PDE4 inhibitors” (Pfizer Inc., priority 2003, dated 2006).

The assay concerns TNFα release from human peripheral blood mononuclear cells. Description: Inhibition of LPS-stimulated TNFα release from human peripheral blood mononuclear cells (TNFα screen). Format: cell-based. Particulars: LPS-stimulated human PBMC, 18 hours incubation, TNFα in supernatant by ELISA. The method, then:
Venous blood is collected from healthy volunteers and the mononuclear cells purified by centrifugation through Histopaque (Ficoll) cushions. TNFα production from these cells is stimulated by addition of lipopolysaccharide. After 18 hours incubation in the presence of LPS, the cell supernatant is removed and the concentration of TNFα in the supernatant determined by ELISA. Addition of PDE4 inhibitors reduces the amount of TNFα produced. An IC50 is determined which is equal to the concentration of compound that gives 50% inhibition of TNFα production as compared to the LPS stimulated control wells.
On the technique in general: In an ELISA, binding on a coated surface is turned into a signal by an enzyme label.
As for `CSc1cccc(Oc2ncc(F)cc2C(=O)N[C@H]2CC[C@@H](NC(=O)c3cc4ccccn4n3)CC2)c1` [Example 1, Syn-Pyrazolo[1,5-a]pyridine-2-carboxylic acid(4-{[5-fluoro-2-(3-methylsulfanyl-phenoxy) -pyridine-3-carbonyl]-amino}-cyclohexyl)-amide], the IC50 worked out at 100 pM. In other words, the sub-nanomolar range.
For the compound `CSc1cccc(Oc2ncc(F)cc2C(=O)N[C@H]2CC[C@@H](NC(=O)c3cccn4ccnc34)CC2)c1` [Example 6, Syn-Imidazo[1,2-a]pyridine-8-carboxylic acid(4-{[5-fluoro-2-(3-methylsulfanyl-phenoxy) -pyridine-3-carbonyl]-amino}-cyclohexyl)-amide], the IC50 stood at 20 pM.
As to `CSc1cccc(Oc2ncc(F)cc2C(=O)N[C@H]2CC[C@@H](NC(=O)c3cccc4nn[nH]c34)CC2)c1` [Example 7, Syn-3H-Benzotriazole-4-carboxylic acid(4-{[5-fluoro-2-(3-methylsulfanyl-Phenoxy) -pyridine-3-carbonyl]-amino}-cyclohexyl)-amide], half-maximal inhibition (IC50) was put at 400 pM.
`CSc1cccc(Oc2ncc(F)cc2C(=O)N[C@H]2CC[C@@H](NC(=O)c3cccc4cccnc34)CC2)c1` [Example 8, Syn-Quinoline-8-carboxylic acid(4-{[5-fluoro-2-(3-methylsulfanyl-phenoxy) -pyridine-3-carbonyl]-amino}-cyclohexyl)-amide] had an IC50 of 250 pM.
For `CSc1cccc(Oc2ncc(F)cc2C(=O)N[C@H]2CC[C@@H](NC(=O)c3cccc4cc(O)cnc34)CC2)c1` [Example 9, Syn-3-Hydroxy-quinoline-8-carboxylic acid(4-{[5-fluoro-2-(3-methylsulfanyl-phenoxy) -pyridine-3-carbonyl]-amino}-cyclohexyl)-amide] the value was 150 pM; for `CSc1cccc(Oc2ncc(F)cc2C(=O)N[C@H]2CC[C@@H](NC(=O)c3nn(CCO)c4ccccc34)CC2)c1` [Example 10, Syn-1-(2-Hydroxy-ethyl)-1H-indazole-3-carboxylic acid(4-{[5-fluoro-2-(3-methylsulfanyl-phenoxy)-pyridine-3-carbonyl]-amino}-cyclohexyl)-amide], 300 pM.
In turn, “Syn-1-Isopropyl-1H-benzoimidazole-4-carboxylic acid(4-{[5-fluoro-2-(3-methylsulfanyl-phenoxy)-pyridine-3-carbonyl]-amino}-cyclohexyl)-amide [Example 2]” yielded an IC50 of 1000 pM. Against the preceding compound, the IC50 is about 3.3-fold higher.
As for “Syn-1H-Indazole-3-carboxylic acid(4-{[5-fluoro-2-(3-methylsulfanyl-phenoxy) -pyridine-3-carbonyl]-amino}-cyclohexyl)-amide [Example 4]”, it took 2000 pM to reach half-maximal inhibition (IC50). This IC50 is about 2-fold higher than that of the compound before.
Consider “Syn-2-Methyl-3H-benzoimidazole-4-carboxylic acid(4-{[5-fluoro-2-(3-methylsulfanyl-phenoxy)-pyridine-3-carbonyl]-amino}-cyclohexyl)-amide [Example 5]”, for which the IC50 amounted to 40 pM.
With “Syn-Imidazo[1,2-a]pyridine-2-carboxylic acid(4-{[5-fluoro-2-(3-methylsulfanyl -phenoxy)-pyridine-3-carbonyl]-amino}-cyclohexyl)-amide [Example 3]” the figure was 100 pM.

Broadly, the IC50 is the concentration needed to halve the response being measured. Read a low IC50 as higher potency.
